Experimental data reported in ChEMBL document CHEMBL1124428, “In vitro metabolic transformations of vinblastine: oxidations catalyzed by peroxidase” (J Med Chem, 1989).
In brackets after ≈: the same amount, converted by molar mass.

Test: Inhibitory concentration against human T-cell leukemic cell line ([…]) in vitro
Format: functional

SMILES	IC50 [µg/mL]
CC[C@]1(O)C[C@H]2CN(CCc3c([nH]c4ccccc34)[C@@](C(=O)OC)(c3cc4c(cc3OC)N(C=O)[C@H]3[C@@](O)(C(=O)OC)[C@H](OC(C)=O)[C@]5(CC)C=CCN6CC[C@]43[C@@H]65)C2)C1 [VINCRISTINE]	0.025 (≈ 0.0303 µM)
CCC(=O)C[C@@H]1CN(C=O)CCc2c([nH]c3ccccc23)[C@@](C(=O)OC)(c2cc3c(cc2OC)N(C)[C@H]2[C@](O)(C(=O)OC)[C@H](OC(C)=O)[C@]4(CC)C=CCN5CC[C@]32[C@@H]54)C1 [CATHARININE]	7.7 (≈ 9.33 µM)
CC[C@]12CN3CCc4c([nH]c5ccccc45)[C@@](C(=O)OC)(c4cc5c(cc4OC)N(C)[C@H]4[C@@](O)(C(=O)OC)[C@H](OC(C)=O)[C@]6(CC)C=CCN7CC[C@]54[C@@H]76)C[C@@H](C3)[C@H]1O2.CC[C@]12CN3CCc4c([nH]c5ccccc45)[C@@](C(=O)OC)(c4cc5c(cc4OC)N(C)[C@H]4[C@@](O)(C(=O)OC)[C@H](OC(C)=O)[C@]6(CC)C=CCN7CC[C@]54[C@@H]76)C[C@@H](C3)[C@H]1O2.O=S(=O)(O)O [VINLEUROSINE SULFATE]	0.4
CC[C@]1(O)C[C@@H]2CN(CCc3c([nH]c4ccccc34)[C@@](C(=O)OC)(c3cc4c(cc3OC)N(C)[C@H]3[C@@](O)(C(=O)OC)[C@H](OC(C)=O)[C@]5(CC)C=CCN6CC[C@]43[C@@H]65)C2)C1 [VINBLASTINE]	0.1 (≈ 0.123 µM)
